In patent US20230018737A1, “AN IN VITRO KIT AND A METHOD FOR D[…] TRANSPLANTS AND/OR AUTOIMMUNE DISEASES AND/OR TUMOR DISEASES AND/OR VA[…] A MESSENGER-SUBSTANCE-CONTAINING SUPERNATANT, CELL-[…], AND A COMBINATION, FOR USE IN D[…] TRANSPLANTS AND/OR AUTOIMMUNE DISEASES AND/OR TUMOR DISEASES AND/OR VACCINATIONS” (HOT Screen GmbH, priority 2019, published 2023):
“And” between values parts separate entries of the source, which are not always exact repeats. Equal entries are not always repeated.

Assays:
[1] = tested on: whole blood cultures; format: cell-based, human
[2] = tested on: T cells; format: cell-based, human

For tetanus toxoid [TeTo], the IL-10 [1] was 8.47 pg/mL and 8.24 pg/mL, the IL-2 [2] was 12.1 pg/mL and the “IL-2 Conc” value [2] was 12.1 pg/mL. The “IL-2 SI (stimulation index)” value [2] was 314.
